From patent US11666589B2, “Pivarubicin and benzarubicin compositions” (Paradox Pharmaceuticals, Inc., priority 2020, dated 2023)

Columns and labels:
[1] = tested on: CEM/VLB-100; assay: Drug resistance of P-glycoprotein overexpressing CEM/VLB-100 cells; assay type: cell-based, human; conditions: CEM/VLB-100 versus CCRF-CEM
Protocol: Pivarubicin used for TNBC studies was synthesized by Dr. John Rimoldi (Univ. of Mississippi) using the previously described protocol. Doxorubicin HCl, rottlerin and all antibodies were purchased from Sigma-Aldrich (St. Louis, Mo.). For in vitro experiments, doxorubicin and pivarubicin were dissolved in DMSO. The final maximum DMSO concentration used for in vitro drug treatments (1% for 72 hours) was not cytotoxic. IL-3-dependent 32D.3 murine myeloid cells, CCRF-CEM human lymphoblastic leukemia cells and multidrug-resistant variants (generous gift of Dr. William T. Beck, St. Jude Children's Research Hospital, Memphis, Tenn.), 293 embryonic human kidney cells and HL-60 human acute myeloid leukemia cells transfected with Bcr-Abl, Bcl-XL or empty expression vectors (generous gift of Dr. Kapil Bhalla, Univ. of Miami) were maintained as previously described. K562 human chronic myelogenous leukemia and LNCaP human prostate cancer cells were purchased from ATCC (Manassas, Va.) and maintained as described by the vendor. LNCaP/Bcl-2 cells were the generous gift of Dr. Ralph Buttyan (Columbia Univ.). Luminescent MDA-MB-231-LM2 (LM-2; metastatic lung subpopulation isolated from human TNBC MDA-MB-231 cells transduced with eIF1a-Luc2-puro lentivirus) were generously provided by Dr. Yibin Kang, Princeton Univ.) and maintained in culture as previously described. […]

[2] = tested on: LM2 tumors; assay: Orthotopic xenograft of luminescent MDA-MB-231 (LM2) cells in mammary glands
Protocol: Monolayer LM2 cells were trypsinized and resuspended in DMEM media containing 10% FBS and 1× antibiotic/antimitotic. Cell concentration was adjusted to yield 2.5 […] for each 10 uL injection in PBS. After preparation for injection, cells were kept on ice at all times. Cells were surgically implanted into the left and right inguinal mammary glands of 4-week-old female NSG mice (NOD/SCID IL2Rγ−/−; Jackson Laboratory [Bar Harbor Me.] #5557) bred in-house. Mice were anesthetized with 1.2% avertin via intraperitoneal (i.p.) injection prior to surgery. Mice were also injected subcutaneously between shoulder blades with rimadyl for pain relief on day of surgery and on day following surgery. Primary tumor growth prior to and during treatment was monitored initially by manual palpation for tumor appearance, then twice weekly using digital calipers. Tumor volume was calculated by the formula: Volume=(Width2×Length)/2. When tumors attained a volume of approximately […], cohorts of 10 randomized drug-naïve, female, NSG mice (8±1 weeks old, 23±2 g) were administered the maximum tolerated dose (MTD) of pivarubicin, doxorubicin or the equivalent volume of vehicle (70% sterile saline, 15% ethanol, 15% Cremophor EL) as a bolus i.p. injection in parallel experiments. Tumor volumes were measured in a blinded manner.
Mice were imaged using Xenogen In Vivo Imaging System® Lumina from Perkin Elmer (Waltham Mass.). Stock D-Luciferin, Firefly, potassium salt (Perkin Elmer, 122799) was prepared in DPBS at a concentration of 30 mg/mL and sterile filtered with 0.2 micrometer syringe filter. Luciferin was further diluted to 15 mg/mL in DPBS prior to injection. Mice were injected i.p. with 200 uL of luciferin. Primary tumors were imaged by placing mice in dorsal recumbency using luminescent setting of auto exposure, field of view D with resolution setting of 4 (medium binning), 10 minutes after injection with luciferin, approximately 5 minutes following anesthetization with isoflurane. Data are reported as total flux in photons per second (p/s) using Living Image software.
In a study of doxorubicin treatment of TNBC-bearing NSG mice, LM2 cells were implanted into the 4R and 4L cleared mammary fat pads of female NSG mice and permitted to proliferate for 26 days until a tumor volume range of 125-190 mm3 was reached based on caliper measurements. Doxorubicin was administered IP rapid push in 70% sterile saline, 15% EtOH, 15% Cremophor EL at 14-day intervals, with tumor volumes measured at indicated days post-implantation, as summarized in FIG. 7A. […] At endpoint, mice were euthanized, and primary tumors resected for volume (FIG. 7B), weight (FIG. 7C), and luminescence (FIG. 7D) measurements. Endpoint results are expressed as the mean±standard error of 10 mice per group. Statistical significance was determined by the Wilcoxon rank-sum test.
Pivarubicin treatment of TNBC-bearing NSG mice was also studied. LM2 cells were implanted into the 4R and 4L cleared mammary fat pads of female NSG mice and permitted to proliferate for 22-24 days until a tumor volume range of 125-190 mm3 was reached based on caliper measurements. Pivarubicin was administered IP rapid push in 70% sterile saline, 15% EtOH, 15% Cremophor EL as either a single dose at 26.6 mg/kg (FIG. 8A) or in two 16.5-mg/kg doses at a 14-day interval (FIG. 8B) with tumor volumes measured at indicated days post-implantation. […] At endpoint, mice were euthanized, and primary tumors resected for volume (FIG. 8C) and weight (FIG. 8D) measurements. Results are expressed as the mean±standard error of 10 mice per group. Statistical significance was determined by the Wilcoxon rank-sum test.

[3] = tested on: 32D.3, J774.2 and 293 cells; assay: Biotransformation to AD 288 after uptake into cells; assay type: in vitro ADME; conditions: initial (1 hour), 1 μM
From the text: (§1) Intracellular drug was extracted and analyzed by fluorescence HPLC as described previously.

[4] = tested on: 32D.3 murine myeloid cells; assay: Drug biotransformation analysis (HPLC of intracellular drug) in 32D.3 cells; assay type: in vitro ADME
From the text: as §1

[5] = tested on: HL-60 human promyelocytic leukemia cells transfected with Bcl-XL; assay: Cytotoxicity in Bcl-XL transfected HL-60 cells; assay type: cell-based; conditions: 5 μM for 1 h, 72 h drug-free
Protocol: For the results shown in FIG. 5A, LNCaP cells transfected with Bcl-2 expression vector were assessed for doxorubicin or pivarubicin cytotoxicity, compared to cells transfected with empty vectors. Cells were exposed to 5 μM drug for 1 h, washed, and further incubated for 72 h in drug-free medium. Viability was determined by the MTT assay. For the results shown in FIG. 5B, pivarubicin cytotoxicity in HL-60 cells transfected with Bcr-Abl or Bcl-XL expression vectors were assessed for doxorubicin or pivarubicin cytotoxicity and compared as described for FIG. 5A.

[6] = tested on: human LNCaP prostate cancer cells; assay: Pivarubicin cytotoxicity after PKCd siRNA transfection; assay type: cell-based; conditions: PKCd-siRNA-transfected cells
[7] = tested on: 293 embryonic human kidney cells; assay: Drug biotransformation analysis (HPLC of intracellular drug) in 293 cells; assay type: in vitro ADME
From the text: as §1

[8] = tested on: J774.2 murine macrophage-like cells; assay: Drug biotransformation analysis (HPLC of intracellular drug) in J774.2 cells; assay type: in vitro ADME
From the text: as §1

[9] = two doses of 16.5 mg/kg i.p. at two-week interval, endpoint

| Structure (SMILES) | resistance [1] [fold] | tumor growth compared with vehicle treatment (volume, weight) ([2]; 1.4 mg/kg, then 1.6 mg/kg 14 days later, i.p.) | weight loss in tumor-bearing mice ([2]; after 1.4 mg/kg and 1.6 mg/kg) | mean decrease in tumor volume compared with mean volume prior to drug administration ([2]; single MTD dose (26.6 mg/kg i.p.)) [%] | mean weight loss (poorly reversible) ([2]; single MTD, tumor-bearing NSG mice) [%] | decrease in tumor volume compared with vehicle treatment [2, 9] [%] | decrease in tumor weight compared with vehicle treatment [2, 9] [%] | drug initially biotransformed [3] | % Parent Compound ([4]; 32D.3, 1 hr, 1 μM drug, 37° C.) [%] | % Parent Compound ([4]; 32D.3, 8 hr (1 hr drug + 7 hours drug-free medium)) [%] | effect of Bcl-XL overexpression on rate of drug-induced apoptosis [5] | increase in concentration required to achieve 50% cell kill [6] [fold] | % Parent Compound ([7]; 293, 1 hr, 1 μM drug, 37° C.) [%] | % Parent Compound ([7]; 293, 8 hr (1 hr drug + 7 hours drug-free medium)) [%] | % Parent Compound ([8]; J774.2, 1 hr, 1 μM drug, 37° C.) [%] | % Parent Compound ([8]; J774.2, 8 hr (1 hr drug + 7 hours drug-free medium)) [%] |
| --- | --- | --- | --- | --- | --- | --- | --- | --- | --- | --- | --- | --- | --- | --- | --- | --- |
| COc1cccc2c1C(=O)c1c(O)c3c(c(O)c1C2=O)C[C@@](O)(C(=O)CO)C[C@@H]3O[C@H]1C[C@H](N)[C@H](O)[C@H](C)O1 [Doxorubicin, reference compound] | 73 | failed to exhibit reduced growth | excessive and irreversible weight loss |  |  |  |  |  |  |  |  |  |  |  |  |  |
| COc1cccc2c1C(=O)c1c(O)c3c(c(O)c1C2=O)C[C@@](O)(C(=O)COC(=O)C(C)(C)C)C[C@@H]3O[C@H]1C[C@H](NCc2ccccc2)[C@H](O)[C@H](C)O1 [Pivarubicin, N-Benzyladriamycin-14-pivalate] | 3 |  |  | 40 | 20 | 50 | 40 | less than 10% | 100 | 96 | do not impede | 2.5 | 98 | 94 | 90 | 90 |
